In paper PMC8520055 (Asian Journal of Pharmaceutical Sciences, 2021):
Where two headings read alike, the source gives them in different places. Each block holds one compound with its values, some of them ahead of it.

Assays:
Pharmacokinetics of ATV [1] = format: in vivo, rats; details: for Plasma concentrations vs control rats: ATV 10 mg/kg p.o., rats treated with RIF 30 mg/kg i.v.
Pharmacokinetics of ATV [2] = format: in vivo, rats; details: for metabolite plasma concentrations vs control: ATV 10 mg/kg p.o., at 7.5, 15, 30 and 60 min after KTZ 20 mg/kg i.v.
[3] = plasma 4β-HC; cited from earlier work
[4] = Hepatic disposition of ATV and GCDCA-S in rats with ANIT-induced liver injury; format: in vivo; details: ANIT-induced liver injury (Fig. S15)
[5] = Plasma and hepatic concentration of KTZ after a single oral dose; format: in vivo, rats; details: for concentration at 1 h: rat, plasma, po; for Hepatic concentration: 1 h
Liver function = format: in vivo, rats
Oatps [6] = assay: Hepatic uptake of ATV and GCDCA-S after 7 d oral RIF or KTZ; format: in vivo, rats; details: for hepatic uptake of ATV: inhibitor p.o. 7 d (RIF 30 mg/kg, KTZ 20 mg/kg), ATV 10 mg/kg p.o., 30 min
Cyp3a [7] = assay: Plasma GCDCA-S, cholesterol and 4β-HC after intravenous KTZ
HepaRG cells [8] = assay: Metabolism of ATV and cholesterol in HepaRG cells in presence of KTZ; format: cell-based, human; details: KTZ 10 µM, HepaRG cells (Fig. S14)
Cyp3a [9] = assay: Endogenous Cyp3a markers; format: in vivo, rats
Oatps [10] = details: read-out: IC50 for Oatps in vitro; cited from earlier work
Oatps [11] = assay: Endogenous substrates of Oatps; format: in vivo, rats
Oatps [12] = assay: Reversibility of RIF inhibition of GCDCA-S uptake; format: in vivo, rats; details: RIF 30 mg/kg p.o. 7 d, then 7-d washout
HepaRG cells [13] = assay: Uptake of ATV and GCDCA-S in HepaRG cells in presence of RIF; format: cell-based; details: Homo sapiens
Oatps [14] = assay: Plasma GCDCA-S, cholesterol and 4β-HC after intravenous RIF; format: in vivo, rats
[15] = cited from earlier work
[16] = Plasma concentration of RIF after a single oral dose; format: in vivo, rats; details: rat
[17] = KTZ single oral dose 20-80 mg/kg
[18] = RIF 30-120 mg/kg single oral dose
[19] = RIF 30-120 mg/kg single oral dose, 2 h

Plasma concentrations vs control rats (Pharmacokinetics of ATV [1]): markedly higher | metabolite plasma concentrations vs control (Pharmacokinetics of ATV [2]): significantly decreased
Structure (SMILES): CC(C)c1c(C(=O)Nc2ccc(O)cc2)c(-c2ccccc2)c(-c2ccc(F)cc2)n1CC[C@@H](O)C[C@@H](O)CC(=O)O [4-OH ATV, 4‑hydroxy-atorvastatin]

concentration at 1 h ([5]; 20 mg/kg): 23.9 µM | concentration at 1 h ([5]; 40 mg/kg): 31.4 µM | concentration at 1 h ([5]; 80 mg/kg): 49.6 µM | Hepatic concentration ([5]; single oral dose 20 mg/kg): 87.1 µmol/kg tissue | Hepatic concentration ([5]; single oral dose 40 mg/kg): 119.2 µmol/kg tissue | Hepatic concentration ([5]; single oral dose 80 mg/kg): 160.6 µmol/kg tissue | plasma levels of cholesterol and its metabolite 4β-HC (Cyp3a [7]; after intravenous KTZ 20 mg/kg): not affected | plasma concentrations of GCDCA-S (Cyp3a [7]; after intravenous KTZ 20 mg/kg (Fig. S9)): not changed | blood concentration of 6β-HC (Cyp3a [9]; KTZ multiple-dose 7 d): increased | plasma concentrations of 4β-HC (Cyp3a [9]; KTZ repeated oral dose 7 d, 20-80 mg/kg): markedly elevated | hepatic 6β-HC levels (Cyp3a [9]; [17]): dose-dependently decreased | plasma 6β-HC levels (Cyp3a [9]; [17]): not been influenced | Hepatic 4β-HC levels (Cyp3a [9]; KTZ single oral dose 20-80 mg/kg (Fig. S5)): significantly increased | KTZ level (plasma) (Pharmacokinetics of ATV [2]; after single i.v. KTZ 20 mg/kg, over 0-360 min (Fig. S10)): above 1.5 µM
Structure (SMILES): CC(=O)N1CCN(c2ccc(OCC3COC(Cn4ccnc4)(c4ccc(Cl)cc4Cl)O3)cc2)CC1 (stereo not drawn) [KTZ, ketoconazole]
liver function (serum AST, ALT, ALP) (Liver function; KTZ 20, 40, 80 mg/kg single or multiple oral dose (Fig. S2)): not affect liver function | hepatic uptake of ATV (Oatps [6]): minimally impacted | degradation ATV to 2-OH ATV and 4-OH ATV (HepaRG cells [8]): inhibited | formation of 4β-HC (HepaRG cells [8]): did not affect

plasma RIF level (Pharmacokinetics of ATV [1]; after single i.v. RIF 30 mg/kg, over 0-360 min (Fig. S8)): above 5.5 µM | IC50 (HepaRG cells [13]; read-out: IC50 for uptake of ATV): 1 µM | IC50 (HepaRG cells [13]; read-out: IC50 for uptake of GCDCA-S): 9.8 µM | concentration at 2 h ([16]; 30 mg/kg): 11.6 µM | concentration at 2 h ([16]; 60 mg/kg): 22.4 µM | concentration at 2 h ([16]; 120 mg/kg): 26.5 µM
Structure (SMILES): CO[C@H]1/C=C/O[C@@]2(C)Oc3c(C)c(O)c4c(O)c(c(/C=N/N5CCN(C)CC5)c(O)c4c3C2=O)NC(=O)/C(C)=C\C=C\[C@H](C)[C@H](O)[C@@H](C)[C@@H](O)[C@@H](C)[C@H](OC(C)=O)[C@@H]1C [RIF, rifampicin]
IC50 (Oatps [10]): 0.14 to 1.7 µM | liver function (serum AST, ALT, ALP) (Liver function; RIF 30, 60, 120 mg/kg single oral dose (Fig. S2)): not affect liver function | hepatic uptake of CP I/III (Oatps [11]; [18]): did not inhibit | plasma concentrations of CP I/III (Oatps [11]; [18]): did not affect | biosynthesis of GCDCA-S from GCDCA in the liver (Oatps [11]; RIF 30-120 mg/kg single oral dose (Fig. S3)): did not affect | hepatic uptake ratio of CA, GCA, GUDCA, TCDCA, TUDCA, THDCA, TLCA and GCDCA-S (Oatps [11]; [19]): decreased | plasma CA, CDCA, HDCA, GCA, GUDCA, TCDCA, TDCA, THDCA and GCDCA-S levels (Oatps [11]; [19]): dose-dependently increased | hepatic uptake of GCDCA-S (Oatps [6]; RIF 30 mg/kg p.o. 7 d): decreased | plasma concentration of GCDCA-S (Oatps [6]; RIF 30 mg/kg p.o. 7 d): significantly increased | hepatic uptake of ATV (Oatps [6]): greatly attenuated | effect on the hepatic uptake of GCDCA-S after washout (Oatps [12]): fully reversed | plasma GCDCA-S level vs vehicle-treated rats after washout (Oatps [12]): not significant different | plasma concentrations of GCDCA-S (Oatps [14]; after intravenous RIF 30 mg/kg): significantly increased | plasma concentration of cholesterol and 4β-HC (Oatps [14]; after intravenous RIF 30 mg/kg (Fig. S7)): did not affect | plasma unbound fraction [15]: 0.265

Continued, compound first:

Structure (SMILES): CC(C)c1c(C(=O)Nc2ccccc2O)c(-c2ccccc2)c(-c2ccc(F)cc2)n1CCC(O)CC(O)CC(=O)O (stereo not drawn) [2-OH ATV, 2‑hydroxy-atorvastatin]
Plasma concentrations vs control rats (Pharmacokinetics of ATV [1]): markedly higher | metabolite plasma concentrations vs control (Pharmacokinetics of ATV [2]): significantly decreased

Structure (SMILES): CC(C)CCC[C@@H](C)[C@H]1CC[C@H]2[C@@H]3CC=C4[C@@H](O)[C@@H](O)CC[C@]4(C)[C@H]3CC[C@]12C [4β-HC, 4β-hydroxycholesterol]
half-life [3]: ~17 days

Structure (SMILES): S=C=Nc1cccc2ccccc12 [ANIT, α-naphthylisothiocyanate]
liver mRNA level of Oatp [4]: decreased
